Format in all cases: functional, organism-based
One assay deals with Saccharomyces cerevisiae. Description: Phototoxicity in 2 hrs UV irradiated Saccharomyces cerevisiae measured after 24 hrs.
Another assay relates to Staphylococcus. Nature of the assay: Phototoxicity in 2 hrs UV irradiated Staphylococcus albus measured after 24 hrs.
The test system of assay [1] is Oncopeltus fasciatus. Description: Antijuvenile hormone activity in first instar Oncopeltus fasciatus larvae at 5 mg to 100 ug/petri dish.
In another assay the test system is Bacillus subtilis. Description: Phototoxicity in 2 hrs UV irradiated Bacillus subtilis measured after 24 hrs.
The subject of another assay is Candida albicans. Nature of the assay: Phototoxicity in 2 hrs UV irradiated Candida albicans measured after 24 hrs.
Another assay deals with Pseudomonas fluorescens. Description: Phototoxicity in 2 hrs UV irradiated Pseudomonas fluorescens measured after 24 hrs.
For another assay, the system named is Escherichia coli. Description: Phototoxicity in 2 hrs UV irradiated Escherichia coli measured after 24 hrs.
In assay [2] the test system is Oncopeltus fasciatus. Nature of the assay: Insecticidal activity in first instar Oncopeltus fasciatus larvae at 1.2 mg/petri dish after 3 to 4 days.
Assay [3] concerns Oncopeltus fasciatus. Nature of the assay: Insecticidal activity in first instar Oncopeltus fasciatus larvae at 5 mg/petri dish.

The source made the active and inactive calls. The calls are words filed in the database; no cut-off is given here.

Consider `C=C(C)c1cc2cc(C(C)=O)c(O)cc2o1`, for which the outcome in the assay with Saccharomyces cerevisiae, in the assay with Staphylococcus, with Oncopeltus fasciatus [1], in the assay on Bacillus subtilis, in the assay with Candida albicans and in the assay on Pseudomonas fluorescens was inactive. In addition, in the assay with Escherichia coli, the outcome was inactive.

Turning to `COc1c2occc2cc2ccc(=O)oc12`, the outcome in the assay with Saccharomyces cerevisiae, in the assay on Staphylococcus, in the assay on Bacillus subtilis, in the assay on Candida albicans and in the assay on Escherichia coli was Active. Also, in the assay with Pseudomonas fluorescens, the outcome was inactive.

With `COc1ccc2c(c1)OC(C)(C)C=C2`, the result in the assay on Saccharomyces cerevisiae, with Staphylococcus, in the assay with Oncopeltus fasciatus [1], in the assay on Bacillus subtilis, with Candida albicans and in the assay with Pseudomonas fluorescens was inactive. For the same compound, in the assay on Escherichia coli, the result was inactive.

As for `COc1cc2c(cc1OC)OC(C)(C)C=C2`, the result in the assay with Saccharomyces cerevisiae, in the assay on Staphylococcus, in the assay on Oncopeltus fasciatus [1], with Bacillus subtilis, in the assay on Candida albicans and with Pseudomonas fluorescens was inactive. Moreover, the outcome with Escherichia coli was inactive.

Take `COc1cc2c(cc1[C@](C)(O)CC(C)c1cc3cc(C(C)=O)c(O)cc3o1)C=CC(C)(C)O2` (stereo not given in full): the outcome in the assay with Saccharomyces cerevisiae, in the assay on Staphylococcus, in the assay on Bacillus subtilis, in the assay with Candida albicans, in the assay on Pseudomonas fluorescens and with Escherichia coli was inactive.

In the case of `C=C(C)c1cc2cc(C(C)=O)c(OC)cc2o1`, the result in the assay on Saccharomyces cerevisiae, in the assay with Bacillus subtilis, with Candida albicans and in the assay with Pseudomonas fluorescens was Active. In addition, the outcome in the assay on Staphylococcus and in the assay with Escherichia coli was inactive.

On to `COc1cc2c(cc1C(C)=O)C=CC(C)(C)O2`, for which the outcome with Saccharomyces cerevisiae, in the assay with Oncopeltus fasciatus [2], with Bacillus subtilis and with Candida albicans was Active. For the same compound, the outcome in the assay with Staphylococcus, in the assay with Oncopeltus fasciatus [1], in the assay on Pseudomonas fluorescens and in the assay with Escherichia coli was inactive.

In the case of `CC(=O)c1cc2c(cc1O)OC(C)(C)C=C2`, the outcome in the assay on Saccharomyces cerevisiae, in the assay with Oncopeltus fasciatus [3], in the assay on Bacillus subtilis and in the assay with Candida albicans was Active. For the same compound, the result in the assay on Staphylococcus, with Oncopeltus fasciatus [1], in the assay on Pseudomonas fluorescens and with Escherichia coli was inactive.

(Values after ChEMBL document CHEMBL1145654, “Phototoxic and Insecticidal Activities of Chromenes and Benzofurans from Encelia” (J Nat Prod, 1983).)
